Measured values as given in BindingDB's records for doi:10.7270/Q29S1T6B (n/a, 1997).
pKi: −log10 of the molar value.

Target: T1, Type-1 angiotensin II receptor B (Rattus norvegicus, UniProt P29089)
T1 sequence (P29089 whole entry): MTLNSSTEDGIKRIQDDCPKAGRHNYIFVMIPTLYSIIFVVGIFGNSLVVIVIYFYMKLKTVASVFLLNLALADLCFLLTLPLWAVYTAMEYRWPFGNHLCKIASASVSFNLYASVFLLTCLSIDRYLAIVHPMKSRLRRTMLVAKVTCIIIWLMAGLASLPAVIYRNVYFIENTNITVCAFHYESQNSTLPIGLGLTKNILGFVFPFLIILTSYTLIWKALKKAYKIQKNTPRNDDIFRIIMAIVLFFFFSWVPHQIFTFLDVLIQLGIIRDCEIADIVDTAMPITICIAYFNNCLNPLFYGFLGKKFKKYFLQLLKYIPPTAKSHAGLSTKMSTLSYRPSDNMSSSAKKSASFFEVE
Assay: Inhibition of binding of [125I]All at the angiotensin II type 1 receptor (AT1 receptor) in rat liver membranes

pKi | SMILES
7.44 | CCc1nn(Cc2ccc(-c3ccccc3-c3nnn[nH]3)cc2)c(=NC(=O)c2ccccc2)s1 [N-[5-Ethyl-3-[2'-(1H-tetrazol-5-yl)-biphenyl-4-ylmethyl]-3H-[1,3,4]thiadiazol-(2Z)-ylidene]-benzamide]
9.21 | CCc1nn(Cc2ccc(-c3ccccc3-c3nnn[nH]3)cc2)c(=NC(=O)c2ccccc2C(=O)O)s1 [N-[5-Ethyl-3-[2'-(1H-tetrazol-5-yl)-biphenyl-4-ylmethyl]-3H-[1,3,4]thiadiazol-(2Z)-ylidene]-phthalamic acid]
8.47 | CCc1nn(Cc2ccc(-c3ccccc3-c3nnn[nH]3)cc2)c(=NC(=O)c2ccccc2Cl)s1 [2-Chloro-N-[5-ethyl-3-[2'-(1H-tetrazol-5-yl)-biphenyl-4-ylmethyl]-3H-[1,3,4]thiadiazol-(2Z)-ylidene]-benzamide]
